Assay results taken from patent US20260098008A1, “COVALENT, CHEMOGENETIC ACTIVATORS FOR K2P POTASSIUM CHANNELS AND USES THEREOF” (THE REGENTS OF THE UNIVERSITY OF CALIFORNIA, priority 2022, published 2026).
Numbering of substitutions follows the chain as printed.

Assays:
A286F TREK-1^CG* = biological target: T1, A286F TREK-1^CG* (Mus musculus, UniProt P97438, A301F/S146C); assay: Resting membrane potential, current-clamp (I=0) in HEK293 cells; type: cell-based; conditions: 20 μM CAT335
T1 construct: expressed in transfected cells; host or cells: Xenopus laevis oocytes injected with mRNA
T1 sequence (P97438 1-411 isoform P97438-2 S131C/A286F): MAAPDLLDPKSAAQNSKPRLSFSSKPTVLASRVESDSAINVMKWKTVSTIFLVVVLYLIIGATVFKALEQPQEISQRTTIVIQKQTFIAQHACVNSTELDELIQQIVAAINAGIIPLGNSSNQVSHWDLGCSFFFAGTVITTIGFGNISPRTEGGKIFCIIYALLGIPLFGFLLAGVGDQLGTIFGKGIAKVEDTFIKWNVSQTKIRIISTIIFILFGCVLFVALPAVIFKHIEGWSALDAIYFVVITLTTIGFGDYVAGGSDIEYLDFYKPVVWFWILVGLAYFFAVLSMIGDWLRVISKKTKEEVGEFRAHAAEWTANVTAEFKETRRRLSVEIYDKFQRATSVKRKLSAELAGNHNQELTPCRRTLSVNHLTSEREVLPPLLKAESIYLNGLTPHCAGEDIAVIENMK
Source text: (§1) Mouse K2P2.1 (TREK-1) (Genbank accession number: NP_034737.2), mouse K2P10.1 (TREK-2) (NM_001316665.1), mouse K2P4.1 (TRAAK) (NM_008431.3), human K2P4.1 (TRAAK) (NM_033310.2) and mouse K2P18.1(TRESK) (NM_207261.3) were used for this study. Point mutations were introduced by site-directed mutagenesis using custom primers and confirmed by sequencing before use. For studies using Xenopus oocytes, K2P channels were subcloned into a previously reported pGEMHE/pMO vector (46). For expression in HEK293 cells, mouse K2P2.1 (TREK-1) and mutants were expressed from a previously described pIRES2-EGFP vector in HEK293 cells (46,47). K2P2.1 (TREK-1) tandems were constructed by connecting the open reading frames for the individual subunits with a linker encoding the […] (SEQ ID NO: 19) sequence. Tandems used for HEK293 cells included an N-terminal HA tag ([…] (SEQ ID NO: 20)) on the first subunit.
(§2) 50% confluent cells were co-transfected (in 35-mm diameter wells) with 10-100 ng of the K2P2.1 plasmid and 400 ng of an eGFP plasmid (for visualization) using LipofectAMINE 2000 (Invitrogen) for 24 h, after which the cells were either plated onto coverslips or the media exchanged with fresh media. […]
(§3) Whole-cell patch-clamp experiments with K2P2.1(TREK-1) and mutants were carried out 24-48 h after transfection. […] Data were analyzed using Clampfit 11 and GraphPad Prism 9.

TREK-1^CG* = biological target: T2, TREK-1^CG* (Mus musculus, UniProt P97438, S146C); assay: as above; type: cell-based; conditions: 20 μM CAT335
T2 construct: expressed in transfected cells; host or cells: HEK293 (pIRES2-EGFP vector)
T2 sequence (P97438 1-411 isoform P97438-2 S131C): T1 sequence (P97438 1-411 isoform P97438-2 S131C/A286F) with F286A
Source text: as §1, §2, §3

K2P4.1 (TRAAK) = biological target: T3, K2P4.1 (TRAAK) (Homo sapiens, UniProt Q9NYG8); conditions: previous studies; cited from earlier work
T3 sequence (Q9NYG8 1-393): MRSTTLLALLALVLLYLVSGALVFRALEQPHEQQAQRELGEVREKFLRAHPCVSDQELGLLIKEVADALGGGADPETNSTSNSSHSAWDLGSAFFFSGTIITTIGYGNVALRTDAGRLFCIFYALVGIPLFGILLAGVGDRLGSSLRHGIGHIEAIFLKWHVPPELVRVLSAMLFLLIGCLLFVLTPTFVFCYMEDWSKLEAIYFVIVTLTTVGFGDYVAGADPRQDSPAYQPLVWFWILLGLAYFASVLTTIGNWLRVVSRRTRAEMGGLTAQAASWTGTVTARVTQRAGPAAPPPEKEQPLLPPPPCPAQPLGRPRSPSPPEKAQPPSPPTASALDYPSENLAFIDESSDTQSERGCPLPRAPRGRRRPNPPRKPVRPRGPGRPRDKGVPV

| Structure (SMILES) | Change of resting membrane potential (ΔRMP) (A286F TREK-1^CG*) [mV] | Change of resting membrane potential (ΔRMP) (TREK-1^CG*) [mV] | Sensitivity of channel to activator (K2P4.1 (TRAAK)) |
| --- | --- | --- | --- |
| O=C(NCc1ccc(Cl)cc1Cl)c1ccc(N2C(=O)C=CC2=O)cc1 [CAT335] | −27 | −6 |  |
| CS(=O)(=O)Nc1ccc(C(=O)NCc2ccc(Cl)cc2Cl)cc1 [ML335, reference compound] |  |  | insensitive |
